Test results reported in ChEMBL document CHEMBL3352542, “Synthesis, biological evaluation and molecular modeling study of 2-(1,3,4-thiadiazolyl-thio and 4-methyl-thiazolyl-thio)-quinazolin-4-ones as a new class of DHFR inhibitors” (Bioorg Med Chem Lett, 2014).
Calls of active or inactive are those of the source. The rule behind the calls is not given here.

Assays:
Dihydrofolate reductase = molecular target: T1, Dihydrofolate reductase (Bos taurus, UniProt P00376); experiment: Inhibition of bovine liver DHFR
T1 sequence (P00376 whole entry): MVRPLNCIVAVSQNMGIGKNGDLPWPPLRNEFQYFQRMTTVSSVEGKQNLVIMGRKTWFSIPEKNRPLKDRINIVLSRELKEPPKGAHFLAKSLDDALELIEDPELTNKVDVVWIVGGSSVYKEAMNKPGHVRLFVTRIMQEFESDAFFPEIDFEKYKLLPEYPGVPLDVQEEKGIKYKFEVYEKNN

K562 = experiment: Growth inhibition of human K562 cells at 10 uM after 48 hrs; assay type: functional
NCI-H460 = experiment: Growth inhibition of human NCI-H460 cells at 10 uM after 48 hrs; assay type: functional
RPMI-8226 = experiment: Growth inhibition of human RPMI8226 cells at 10 uM after 48 hrs; assay type: functional
NCI-H23 = experiment: Growth inhibition of human NCI-H23 cells at 10 uM after 48 hrs; assay type: functional
Hs-578T = experiment: Growth inhibition of human Hs 578T cells at 10 uM after 48 hrs; assay type: functional
HCC 2998 = experiment: Growth inhibition of human HCC2998 cells at 10 uM after 48 hrs; assay type: functional
CCRF-CEM = experiment: Growth inhibition of human CCRF-CEM cells at 10 uM after 48 hrs; assay type: functional
LOX IMVI = experiment: Growth inhibition of human LOXIMVI cells at 10 uM after 48 hrs; assay type: functional
NCI/ADR-RES = experiment: Growth inhibition of human NCI-ADR-RES cells at 10 uM after 48 hrs; assay type: functional
OVCAR-8 = experiment: Growth inhibition of human OVCAR8 cells at 10 uM after 48 hrs; assay type: functional
786-0 = experiment: Growth inhibition of human 786-0 cells at 10 uM after 48 hrs; assay type: functional
OVCAR-5 = experiment: Growth inhibition of human OVCAR5 cells at 10 uM after 48 hrs; assay type: functional
SN12C = experiment: Growth inhibition of human SN12C cells at 10 uM after 48 hrs; assay type: functional
BT-549 = experiment: Growth inhibition of human BT549 cells at 10 uM after 48 hrs; assay type: functional
Candida albicans = experiment: Antimicrobial activity against Candida albicans assessed as inhibition zone at 200 ug/disk after 24 hrs by disc-diffusion method; assay type: functional; conditions: read-out: IZ
SR = experiment: Growth inhibition of human SR cells at 10 uM after 48 hrs; assay type: functional
Pseudomonas aeruginosa = experiment: Antimicrobial activity against Pseudomonas aeruginosa assessed as inhibition zone at 200 ug/disk after 24 hrs by disc-diffusion method; assay type: functional; conditions: read-out: IZ
MOLT-4 = experiment: Growth inhibition of human MOLT4 cells at 10 uM after 48 hrs; assay type: functional
KM12 = experiment: Growth inhibition of human KM12 cells at 10 uM after 48 hrs; assay type: functional
SF-295 = experiment: Growth inhibition of human SF295 cells at 10 uM after 48 hrs; assay type: functional
HCT-15 = experiment: Growth inhibition of human HCT15 cells at 10 uM after 48 hrs; assay type: functional
RXF 393 = experiment: Growth inhibition of human RXF393 cells at 10 uM after 48 hrs; assay type: functional
M14 = experiment: Growth inhibition of human M14 cells at 10 uM after 48 hrs; assay type: functional
OVCAR-3 = experiment: Growth inhibition of human OVCAR3 cells at 10 uM after 48 hrs; assay type: functional
UACC-257 = experiment: Growth inhibition of human UACC257 cells at 10 uM after 48 hrs; assay type: functional
HT-29 = experiment: Growth inhibition of human HT-29 cells at 10 uM after 48 hrs; assay type: functional
A549 = experiment: Growth inhibition of human A549 cells at 10 uM after 48 hrs; assay type: functional
HCT-116 = experiment: Growth inhibition of human HCT116 cells at 10 uM after 48 hrs; assay type: functional
MDA-MB-468 = experiment: Growth inhibition of human MDA-MB-468 cells at 10 uM after 48 hrs; assay type: functional
SF-539 = experiment: Growth inhibition of human SF539 cells at 10 uM after 48 hrs; assay type: functional
U-251 = experiment: Growth inhibition of human U251 cells at 10 uM after 48 hrs; assay type: functional
NCI-H522 = experiment: Growth inhibition of human NCI-H522 cells at 10 uM after 48 hrs; assay type: functional
SK-MEL-5 = experiment: Growth inhibition of human SK-MEL-5 cells at 10 uM after 48 hrs; assay type: functional
HOP-92 = experiment: Growth inhibition of human HOP92 cells at 10 uM after 48 hrs; assay type: functional
MDA-MB-435 = experiment: Growth inhibition of human MDA-MB-435 cells at 10 uM after 48 hrs; assay type: functional
A498 = experiment: Growth inhibition of human A498 cells at 10 uM after 48 hrs; assay type: functional
SNB-19 = experiment: Growth inhibition of human SNB19 cells at 10 uM after 48 hrs; assay type: functional
UO-31 = experiment: Growth inhibition of human UO31 cells at 10 uM after 48 hrs; assay type: functional
COLO 205 = experiment: Growth inhibition of human COLO205 cells at 10 uM after 48 hrs; assay type: functional
SNB-75 = experiment: Growth inhibition of human SNB75 cells at 10 uM after 48 hrs; assay type: functional
OVCAR-4 = experiment: Growth inhibition of human OVCAR4 cells at 10 uM after 48 hrs; assay type: functional
MCF7 = experiment: Growth inhibition of human MCF7 cells at 10 uM after 48 hrs; assay type: functional
Bacillus subtilis = experiment: Antimicrobial activity against Bacillus subtilis assessed as inhibition zone at 200 ug/disk after 24 hrs by disc-diffusion method; assay type: functional; conditions: read-out: IZ
T47D = experiment: Growth inhibition of human T47D cells at 10 uM after 48 hrs; assay type: functional
Malme-3M = experiment: Growth inhibition of human MALME-3M cells at 10 uM after 48 hrs; assay type: functional
UACC-62 = experiment: Growth inhibition of human UACC62 cells at 10 uM after 48 hrs; assay type: functional
NCI-H226 = experiment: Growth inhibition of human NCI-H226 cells at 10 uM after 48 hrs; assay type: functional
TK-10 = experiment: Growth inhibition of human TK10 cells at 10 uM after 48 hrs; assay type: functional
ACHN = experiment: Growth inhibition of human ACHN cells at 10 uM after 48 hrs; assay type: functional
Escherichia coli = experiment: Antimicrobial activity against Escherichia coli assessed as inhibition zone at 200 ug/disk after 24 hrs by disc-diffusion method; assay type: functional; conditions: read-out: IZ
PC-3 = experiment: Growth inhibition of human PC3 cells at 10 uM after 48 hrs; assay type: functional
CAKI-1 = experiment: Growth inhibition of human CAKI-1 cells at 10 uM after 48 hrs; assay type: functional
MDA-MB-231 = experiment: Growth inhibition of human MDA-MB-231 cells at 10 uM after 48 hrs; assay type: functional
SF-268 = experiment: Growth inhibition of human SF268 cells at 10 uM after 48 hrs; assay type: functional
Staphylococcus aureus = experiment: Antimicrobial activity against Staphylococcus aureus assessed as inhibition zone at 200 ug/disk after 24 hrs by disc-diffusion method; assay type: functional; conditions: read-out: IZ
SW-620 = experiment: Growth inhibition of human SW620 cells at 10 uM after 48 hrs; assay type: functional
HL-60(TB) = experiment: Growth inhibition of human HL-60(TB) cells at 10 uM after 48 hrs; assay type: functional

## Cc1ccc2nc(Sc3sc(N)nc3C)n(-c3ccccc3)c(=O)c2c1
Dihydrofolate reductase
  IC50: 5000 nM
K562
  growth inhibition (GI): inactive
NCI-H460
  growth inhibition (GI): inactive
RPMI-8226
  growth inhibition (GI): inactive
NCI-H23
  growth inhibition (GI): inactive
Hs-578T
  growth inhibition (GI): inactive
HCC 2998
  growth inhibition (GI): inactive
CCRF-CEM
  growth inhibition (GI): inactive
LOX IMVI
  growth inhibition (GI): inactive
NCI/ADR-RES
  growth inhibition (GI): inactive
OVCAR-8
  growth inhibition (GI): inactive
786-0
  growth inhibition (GI): inactive
OVCAR-5
  growth inhibition (GI): inactive
SN12C
  growth inhibition (GI): inactive
BT-549
  growth inhibition (GI): inactive
Candida albicans
  zone of inhibition at 200 µg/disc: 8 mm
SR
  growth inhibition (GI): inactive
Pseudomonas aeruginosa
  zone of inhibition at 200 µg/disc: 8 mm
MOLT-4
  growth inhibition (GI): inactive
KM12
  growth inhibition (GI): inactive
SF-295
  growth inhibition (GI): inactive
HCT-15
  growth inhibition (GI): inactive
RXF 393
  growth inhibition (GI): inactive
M14
  growth inhibition (GI): inactive
OVCAR-3
  growth inhibition (GI): inactive
UACC-257
  growth inhibition (GI): inactive
HT-29
  growth inhibition (GI): inactive
A549
  growth inhibition (GI): inactive
HCT-116
  growth inhibition (GI): inactive
MDA-MB-468
  growth inhibition (GI): inactive
SF-539
  growth inhibition (GI): inactive
U-251
  growth inhibition (GI): inactive
NCI-H522
  growth inhibition (GI): inactive
SK-MEL-5
  growth inhibition (GI): inactive
HOP-92
  growth inhibition (GI): inactive
MDA-MB-435
  growth inhibition (GI): inactive
A498
  growth inhibition (GI): inactive
SNB-19
  growth inhibition (GI): inactive
UO-31
  growth inhibition (GI): inactive
COLO 205
  growth inhibition (GI): inactive
SNB-75
  growth inhibition (GI): inactive
OVCAR-4
  growth inhibition (GI): inactive
MCF7
  growth inhibition (GI): inactive
Bacillus subtilis
  zone of inhibition at 200 µg/disc: 8 mm
T47D
  growth inhibition (GI): inactive
Malme-3M
  growth inhibition (GI): inactive
UACC-62
  growth inhibition (GI): inactive
NCI-H226
  growth inhibition (GI): inactive
TK-10
  growth inhibition (GI): inactive
ACHN
  growth inhibition (GI): inactive
Escherichia coli
  zone of inhibition at 200 µg/disc: 8 mm
PC-3
  growth inhibition (GI): inactive
CAKI-1
  growth inhibition (GI): inactive
MDA-MB-231
  growth inhibition (GI): inactive
SF-268
  growth inhibition (GI): inactive
Staphylococcus aureus
  zone of inhibition at 200 µg/disc: 8 mm
SW-620
  growth inhibition (GI): inactive
HL-60(TB)
  growth inhibition (GI): inactive

## COc1ccc(-n2c(Sc3sc(N)nc3C)nc3cc(OC)c(OC)cc3c2=O)cc1
Dihydrofolate reductase
  IC50: 1000 nM
K562
  growth inhibition (GI): inactive
NCI-H460
  growth inhibition (GI): inactive
RPMI-8226
  growth inhibition (GI): inactive
NCI-H23
  growth inhibition (GI): inactive
Hs-578T
  growth inhibition (GI): inactive
HCC 2998
  growth inhibition (GI): inactive
CCRF-CEM
  growth inhibition (GI): inactive
LOX IMVI
  growth inhibition (GI): inactive
NCI/ADR-RES
  growth inhibition (GI): inactive
OVCAR-8
  growth inhibition (GI): inactive
786-0
  growth inhibition (GI): inactive
OVCAR-5
  growth inhibition (GI): inactive
SN12C
  growth inhibition (GI): inactive
BT-549
  growth inhibition (GI): inactive
Candida albicans
  zone of inhibition at 200 µg/disc: 8 mm
SR
  growth inhibition (GI): inactive
Pseudomonas aeruginosa
  zone of inhibition at 200 µg/disc: 8 mm
MOLT-4
  growth inhibition (GI): inactive
KM12
  growth inhibition (GI): inactive
SF-295
  growth inhibition (GI): inactive
HCT-15
  growth inhibition (GI): inactive
RXF 393
  growth inhibition (GI): inactive
M14
  growth inhibition (GI): inactive
OVCAR-3
  growth inhibition (GI): inactive
UACC-257
  growth inhibition (GI): inactive
HT-29
  growth inhibition (GI): inactive
A549
  growth inhibition (GI): inactive
HCT-116
  growth inhibition (GI): inactive
MDA-MB-468
  growth inhibition (GI): inactive
SF-539
  growth inhibition (GI): inactive
U-251
  growth inhibition (GI): inactive
NCI-H522
  growth inhibition (GI): inactive
SK-MEL-5
  growth inhibition (GI): inactive
HOP-92
  growth inhibition (GI): inactive
MDA-MB-435
  growth inhibition (GI): inactive
A498
  growth inhibition (GI): inactive
SNB-19
  growth inhibition (GI): inactive
UO-31
  growth inhibition (GI): inactive
COLO 205
  growth inhibition (GI): inactive
SNB-75
  growth inhibition (GI): inactive
OVCAR-4
  growth inhibition (GI): inactive
MCF7
  growth inhibition (GI): inactive
Bacillus subtilis
  zone of inhibition at 200 µg/disc: 8 mm
T47D
  growth inhibition (GI): inactive
Malme-3M
  growth inhibition (GI): inactive
UACC-62
  growth inhibition (GI): inactive
NCI-H226
  growth inhibition (GI): inactive
TK-10
  growth inhibition (GI): inactive
ACHN
  growth inhibition (GI): inactive
Escherichia coli
  zone of inhibition at 200 µg/disc: 8 mm
PC-3
  growth inhibition (GI): inactive
CAKI-1
  growth inhibition (GI): inactive
MDA-MB-231
  growth inhibition (GI): inactive
SF-268
  growth inhibition (GI): inactive
Staphylococcus aureus
  zone of inhibition at 200 µg/disc: 8 mm
SW-620
  growth inhibition (GI): inactive
HL-60(TB)
  growth inhibition (GI): inactive
